Laboratory results as given in article PMC2074754, “Effects of the selective bisindolylmaleimide protein kinase C inhibitor GF 109203X on P-glycoprotein-mediated multidrug resistance” (British Journal of Cancer, 1996).

Tests used:
[1] = biological target: T1, P-glycoprotein (P-gp, MDR1) (Homo sapiens, UniProt P08183); experiment: radioligand binding with self-competition by unlabelled vinblastine
T1 construct: gene ABCB1

[2] = biological target: T1, P-glycoprotein (P-gp, MDR1); experiment: [3H]vinblastine radioligand competition and inhibition of [3H]azidopine photoaffinity labelling of the […] kDa P-gp band; format: binding

T1 sequence (P08183 whole entry): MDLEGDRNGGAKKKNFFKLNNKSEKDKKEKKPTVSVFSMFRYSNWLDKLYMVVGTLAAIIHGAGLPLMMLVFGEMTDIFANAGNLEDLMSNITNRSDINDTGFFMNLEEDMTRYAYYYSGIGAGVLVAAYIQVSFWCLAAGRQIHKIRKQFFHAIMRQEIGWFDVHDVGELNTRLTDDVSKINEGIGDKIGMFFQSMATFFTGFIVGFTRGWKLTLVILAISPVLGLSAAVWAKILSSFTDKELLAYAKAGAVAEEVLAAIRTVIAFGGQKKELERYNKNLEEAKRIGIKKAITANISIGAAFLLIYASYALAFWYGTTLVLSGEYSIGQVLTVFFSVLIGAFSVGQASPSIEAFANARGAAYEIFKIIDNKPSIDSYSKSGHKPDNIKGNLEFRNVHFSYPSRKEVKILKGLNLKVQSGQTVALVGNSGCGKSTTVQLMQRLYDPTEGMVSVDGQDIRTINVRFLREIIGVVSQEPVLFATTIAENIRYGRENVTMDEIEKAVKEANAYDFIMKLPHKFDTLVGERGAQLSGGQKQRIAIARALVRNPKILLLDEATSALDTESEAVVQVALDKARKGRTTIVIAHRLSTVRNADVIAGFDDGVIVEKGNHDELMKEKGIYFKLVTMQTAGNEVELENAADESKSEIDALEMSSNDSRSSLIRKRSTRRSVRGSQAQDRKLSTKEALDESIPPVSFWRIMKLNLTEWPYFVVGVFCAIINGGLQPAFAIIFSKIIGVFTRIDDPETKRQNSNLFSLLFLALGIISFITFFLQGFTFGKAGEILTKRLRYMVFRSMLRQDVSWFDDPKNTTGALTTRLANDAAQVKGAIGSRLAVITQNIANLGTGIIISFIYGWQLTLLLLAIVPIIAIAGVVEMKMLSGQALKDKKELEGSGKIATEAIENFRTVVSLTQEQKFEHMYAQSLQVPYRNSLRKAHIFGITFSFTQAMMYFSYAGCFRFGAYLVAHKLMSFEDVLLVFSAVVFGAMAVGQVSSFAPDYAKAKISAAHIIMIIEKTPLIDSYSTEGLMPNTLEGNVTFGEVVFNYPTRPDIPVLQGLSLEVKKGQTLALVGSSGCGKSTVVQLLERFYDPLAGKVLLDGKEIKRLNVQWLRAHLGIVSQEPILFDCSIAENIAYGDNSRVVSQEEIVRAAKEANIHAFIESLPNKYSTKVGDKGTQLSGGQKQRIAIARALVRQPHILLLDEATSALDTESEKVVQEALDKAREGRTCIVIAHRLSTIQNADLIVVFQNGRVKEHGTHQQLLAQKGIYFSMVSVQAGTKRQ

SMILES	radioligand binding with self-competition by unlabelled vinblastine [1]	[3H]vinblastine radioligand competition and inhibition of [3H]azidopine photoaff [2]
CC[C@]1(O)C[C@@H]2CN(CCc3c([nH]c4ccccc34)[C@@](C(=O)OC)(c3cc4c(cc3OC)N(C)[C@H]3[C@@](O)(C(=O)OC)[C@H](OC(C)=O)[C@]5(CC)C=CCN6CC[C@]43[C@@H]65)C2)C1 [vinblastine sulphate]	Competition of [3H]vinblastine sulphate binding by unlabelled vinblastine sulphate was included as a control.	–
CN(C)CCCn1cc(C2=C(c3c[nH]c4ccccc34)C(=O)NC2=O)c2ccccc21 [GF 109203X]	–	Inhibition of the photo- affinity labelling was observed in a similar micromolar
